Source: BindingDB's records for doi:10.1016/s0960-894x(00)00664-8 (Kyoto University, 2001)
Where a SMILES comes first, the peptide text is derived from it. Bridges are numbered along the chain shown (N, C = ends). [ ]: non-standard residue; d: D form. Gly(2-naphthyl) = N[C@H](C(=O)O)c1ccc2ccccc2c1; Cit = NC(=O)NCCC[C@H](N)C(=O)O

Assay: Effective concentration for antagonistic activity by inhibition of T-tropic strain of HIV-1 through its specific binding to a chemokine receptor

EC50: 180 pM
Structure (SMILES): NCCCC[C@@H]1NC(=O)[C@H](CCCN=C(N)N)NC(=O)[C@H](Cc2ccc(O)cc2)NC(=O)[C@@H](NC(=O)[C@@H](NC(=O)[C@H](CCCN=C(N)N)NC(=O)[C@@H](N)CCCN=C(N)N)c2ccc3ccccc3c2)CSSC[C@@H](C(=O)N[C@@H](CCCN=C(N)N)C(=O)O)NC(=O)[C@H](CCCNC(N)=O)NC(=O)[C@H](CCCN=C(N)N)NC(=O)[C@H](Cc2ccc(O)cc2)NC(=O)[C@@H]2CCCN2C(=O)[C@@H](CCCCN)NC1=O [Compound T140] (H-RR[Gly(2-naphthyl)]CYRK[dK]PYR[Cit]CR-OH; disulfide 4-13)
